This is an account of results in patent publication US9193731B2, “Antimicrobial compounds and methods of making and using the same” (Melinta Therapeutics, Inc., priority 2009, dated 2015).

In this assay the test system is Escherichia coli strain ATCC25922. Description: standard microdilution assay to determine minimum inhibitory concentrations (MICs). It is filed as cell-based. Particulars: for MIC: Escherichia coli, ATCC25922, Escherichia coli strain ATCC25922, microdilution, read-out: E. coli ATCC25922 MIC; for E. coli ATCC25922 MIC: Escherichia coli strain ATCC25922, microdilution. In a few lines: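 E. coli strain ATCC25922 tested per CLSI microdilution methodology (about 100 microliters per well) to find minimum inhibitory concentrations. Activity scored categorically at a 16 micrograms/ml threshold.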

Each structure is given as a SMILES string. A value given as a limit tells only on which side of the number the result lay.

As for `O=c1nc2[nH]c(-c3ccc(S(=O)(=O)NC4CCNCC4)cc3)cc2cn1-c1ccccc1O` [Compound 1208], the MIC is over 16 µg/mL.

As to `CCOCCn1cc(CCNO)c2ccc(-n3cc4cc(CCS(=O)(=O)NC5CCNCC5)[nH]c4nc3=O)cc21` [Compound 1209], the MIC was over 16 µg/mL.

As for `N=C(N)NCCCNCc1ccc(-n2cc3cc(C4CCCNC4)[nH]c3nc2=O)cc1` (centres unmarked) [Compound 1210], the MIC is under 16 µg/mL.

For the compound `N=C(N)NCCCNCc1ccc(-n2cc3cc(C4CCCN(C(=N)N)C4)[nH]c3nc2=O)cc1` (centres unmarked) [Compound 1211], the MIC was under 16 µg/mL.

Consider `NC(N)=NCCCNCc1ccc(-n2cc3cc(-c4cccc(S(=O)(=O)N(CCc5ccc(O)cc5)C5CCNCC5)c4)[nH]c3nc2=O)cc1` [Compound 1214], for which the “E. coli ATCC25922 MIC” value is reported as “+ (a “+” indicates that the compound has an MIC value of 16 micrograms/ml or less)”.

Regarding `COc1ccc(CCN(C2CCNCC2)S(=O)(=O)c2cccc(-c3cc4cn(-c5ccc(CN)cc5)c(=O)nc4[nH]3)c2)cc1` [Compound 1215], the MIC was over 16 µg/mL.

`N=C(N)CCCOc1cccc(-c2cc3cn(-c4ccc(CNCCCN)cc4)c(=O)nc3[nH]2)c1` [Compound 1216]: the minimal inhibitory concentration (MIC) is under 16 µg/mL.

In the case of `N=C(N)CCCOc1cccc(-c2cc3cn(-c4ccc(CNCCCNC(=N)N)cc4)c(=O)nc3[nH]2)c1` [Compound 1217], the “E. coli ATCC25922 MIC” value is given as “+ (a “+” indicates that the compound has an MIC value of 16 micrograms/ml or less)”.

Regarding `CC(C)(C)NCC(=O)Nc1ccc(-c2cc3cn(-c4ccc(CNCCCN=C(N)N)cc4)c(=O)nc3[nH]2)cc1` [Compound 1218], the “E. coli ATCC25922 MIC” value is “+ (a “+” indicates that the compound has an MIC value of 16 micrograms/ml or less)”.

With `N=C(N)N[C@@H]1CCN(Cc2ccc(-n3cc4cc(-c5ccc(S(=O)(=O)N(CCCn6cnnc6)C6CCNCC6)cc5)[nH]c4nc3=O)cc2)C1` [Compound 1219], the “E. coli ATCC25922 MIC” value is “− (a “−” indicates that the compound has an MIC value greater than 16 micrograms/ml)”.

Regarding `NC1CCN(Cc2ccc(-n3cc4cc(-c5ccc(S(=O)(=O)N(CCCn6cnnc6)C6CCNCC6)cc5)[nH]c4nc3=O)cc2)C1` (centres unmarked) [Compound 1220], the “E. coli ATCC25922 MIC” value is given as “− (a “−” indicates that the compound has an MIC value greater than 16 micrograms/ml)”.

For `CNCCCOc1cccc(-c2cc3cn(-c4ccc(CNCCCNC(=N)N)cc4)c(=O)nc3[nH]2)c1` [Compound 1221], the MIC is under 16 µg/mL.

For `N=C(N)N[C@@H]1CCN(Cc2ccc(-n3cc4cc(-c5ccc(S(=O)(=O)N(CCCN6CCS(=O)(=O)CC6)C6CCNCC6)cc5)[nH]c4nc3=O)cc2)C1` [Compound 1222], the “E. coli ATCC25922 MIC” value is on record as “− (a “−” indicates that the compound has an MIC value greater than 16 micrograms/ml)”.

On to `O=C1CC[C@@H](COc2cccc(-n3cc4cc(-c5ccc(S(=O)(=O)NC6CCNCC6)cc5)[nH]c4nc3=O)c2)N1` [Compound 1223], for which the MIC is over 16 µg/mL.

In the case of `CC(=O)NCCN(C1CCNCC1)S(=O)(=O)c1cccc(-c2cc3cn(-c4ccc(CN)cc4)c(=O)nc3[nH]2)c1` [Compound 1224], the MIC was over 16 µg/mL.

Consider `NCc1ccc(-n2cc3cc(-c4cccc(S(=O)(=O)N(CCCc5cn[nH]c5)C5CCNCC5)c4)[nH]c3nc2=O)cc1` [Compound 1225], for which the MIC is over 16 µg/mL.

In the case of `COc1ccc(CCN(C2CCNCC2)S(=O)(=O)c2cccc(-c3cc4cn(-c5ccc(CNCCCN=C(N)N)cc5)c(=O)nc4[nH]3)c2)cc1` [Compound 1226], the “E. coli ATCC25922 MIC” value is “+ (a “+” indicates that the compound has an MIC value of 16 micrograms/ml or less)”.

`NC(N)=NCCCNCc1ccc(-n2cc3cc(-c4cccc(S(=O)(=O)N(CCn5cccc5)C5CCNCC5)c4)[nH]c3nc2=O)cc1` [Compound 1227]: the “E. coli ATCC25922 MIC” value was “+ (a “+” indicates that the compound has an MIC value of 16 micrograms/ml or less)”.

As for `N=C(N)NC[C@H](N)C(=O)NCc1ccc(-n2cc3cc(-c4ccc(S(=O)(=O)NC5CCNCC5)cc4)[nH]c3nc2=O)cc1` [Compound 1228], the “E. coli ATCC25922 MIC” value is “+ (a “+” indicates that the compound has an MIC value of 16 micrograms/ml or less)”.

`N=C(N)NCCCNCc1ccc(-n2cc3cc(C4CCNC4)[nH]c3nc2=O)cc1` (centres unmarked) [Compound 1229]: the MIC was under 16 µg/mL.

As to `N=C(N)NCCCNCc1ccc(-n2cc3cc(C4CCN(C(=N)N)C4)[nH]c3nc2=O)cc1` (centres unmarked) [Compound 1230], the MIC is under 16 µg/mL.

With `N=C(N)NCCCNCc1ccc(-n2cc3cc(C[C@@H](CO)NC(=O)c4ccccc4)[nH]c3nc2=O)cc1` [Compound 1231], the MIC was over 16 µg/mL.

As for `NCc1ccc(-n2cc3cc(-c4cccc(CN5CCNCC5)c4)[nH]c3nc2=O)cc1` [Compound 1232], the MIC was over 16 µg/mL.

As for `N=C(N)NCCCNCc1ccc(-n2cc3cc(-c4cccc(CN5CCNCC5)c4)[nH]c3nc2=O)cc1` [Compound 1233], the MIC was under 16 µg/mL.

On to `NCCc1cn(CCCCO)c2cc(-n3cc4cc(CCS(=O)(=O)C5CCNCC5)[nH]c4nc3=O)ccc12` [Compound 1239], for which the MIC is over 16 µg/mL.

Regarding `N=C(N)NCCCNCc1ccc(-n2cc3cc(CCS(=O)(=O)C4CCNCC4)[nH]c3nc2=O)cc1` [Compound 1240], the MIC is under 16 µg/mL.

Consider `NCCCNC(=O)c1ccc(-n2cc3cc(-c4ccc(S(=O)(=O)NC5CCNCC5)cc4)[nH]c3nc2=O)cc1OCC1CCNCC1` [Compound 1241], for which the “E. coli ATCC25922 MIC” value is listed as “− (a “−” indicates that the compound has an MIC value greater than 16 micrograms/ml)”.

Turning to `NC(N)=NCCCNCc1ccc(-n2cc3cc(-c4ccc(S(=O)(=O)NC5CCNCC5)cc4)oc3nc2=O)cc1` [Compound 1242], the “E. coli ATCC25922 MIC” value is “+ (a “+” indicates that the compound has an MIC value of 16 micrograms/ml or less)”.

On to `CC(=O)NCCN(C1CCNCC1)S(=O)(=O)c1cccc(-c2cc3cn(-c4ccc(CNCCCN=C(N)N)cc4)c(=O)nc3[nH]2)c1` [Compound 1243], for which the “E. coli ATCC25922 MIC” value is given as “+ (a “+” indicates that the compound has an MIC value of 16 micrograms/ml or less)”.

Turning to `N=C(N)NCCCNCc1ccc(-n2cc3cc(C4C[C@@H](N)[C@@H](CO)O4)[nH]c3nc2=O)cc1` (some centres unmarked) [Compound 1245], the MIC was under 16 µg/mL.

For `NCCCNCc1ccc(-n2cc3cc(C4C[C@@H](N)[C@@H](CO)O4)[nH]c3nc2=O)cc1` (some centres unmarked) [Compound 1246], the minimal inhibitory concentration (MIC) is under 16 µg/mL.

As for `NCc1ccc(-n2cc3cc(-c4cccc(S(=O)(=O)N(CCn5nccc5N)C5CCNCC5)c4)[nH]c3nc2=O)cc1` [Compound 1248], the MIC is over 16 µg/mL.

`NCc1ccc(-n2cc3cc(-c4cccc(S(=O)(=O)N(CCC(N)=O)C5CCNCC5)c4)[nH]c3nc2=O)cc1` [Compound 1249]: the MIC is over 16 µg/mL.

On to `COc1ccc(NCCCS(=O)(=O)c2ccc(-c3cc4cn(-c5ccc(CNCCCN=C(N)N)cc5)c(=O)nc4[nH]3)cc2)cc1` [Compound 1250], for which the “E. coli ATCC25922 MIC” value was “− (a “−” indicates that the compound has an MIC value greater than 16 micrograms/ml)”.

Turning to `NC(N)=NCCCNCc1ccc(-n2cc3cc(CCS(=O)(=O)CCNC4CCNCC4)[nH]c3nc2=O)cc1` [Compound 1251], the “E. coli ATCC25922 MIC” value is listed as “+ (a “+” indicates that the compound has an MIC value of 16 micrograms/ml or less)”.

In the case of `NC(=O)COc1cccc(-n2cc3cc(-c4ccc(S(=O)(=O)NC5CCNCC5)cc4)[nH]c3nc2=O)c1` [Compound 1253], the MIC was over 16 µg/mL.

For the compound `N=C(N)NCCCNC(=O)c1ccc(-n2cc3cc(-c4cccc(OCCCN)c4)[nH]c3nc2=O)cc1` [Compound 1255], the minimal inhibitory concentration (MIC) is under 16 µg/mL.

Regarding `N=C(N)NCCCNC(=O)c1ccc(-n2cc3cc(C4CCCN(C(=N)N)C4)[nH]c3nc2=O)cc1` (centres unmarked) [Compound 1256], the minimum inhibitory concentration (MIC) is under 16 µg/mL.

Regarding `N=C(N)NCCCNC(=O)c1ccc(-n2cc3cc(C4CCCNC4)[nH]c3nc2=O)cc1` (centres unmarked) [Compound 1257], the MIC was over 16 µg/mL.

As to `CCCCn1cc(CCN)c2ccc(-n3cc4cc(CCS(=O)(=O)C5CCNCC5)[nH]c4nc3=O)cc21` [Compound 1258], the minimum inhibitory concentration (MIC) is over 16 µg/mL.

As for `N=C(N)NCCCNCc1ccc(-n2cc3cc(-c4cccc(S(=O)(=O)N(CCC(N)=O)C5CCNCC5)c4)[nH]c3nc2=O)cc1` [Compound 1259], the “E. coli ATCC25922 MIC” value is reported as “+ (a “+” indicates that the compound has an MIC value of 16 micrograms/ml or less)”.

With `COc1ccc(NCCCS(=O)(=O)c2ccc(-c3cc4cn(-c5ccc(C(=O)NCCCNC(=N)N)cc5)c(=O)nc4[nH]3)cc2)cc1` [Compound 1260], the “E. coli ATCC25922 MIC” value is “− (a “−” indicates that the compound has an MIC value greater than 16 micrograms/ml)”.

Regarding `N=C(N)NCCCNC(=O)c1ccc(-n2cc3cc(-c4ccc(S(=O)(=O)CCCNC5CCNCC5)cc4)[nH]c3nc2=O)cc1` [Compound 1261], the “E. coli ATCC25922 MIC” value is recorded as “+ (a “+” indicates that the compound has an MIC value of 16 micrograms/ml or less)”.

With `N=C(N)NCCCNCc1ccc(-n2cc3cc(-c4cccc(S(=O)(=O)N(CCn5nccc5N)C5CCNCC5)c4)[nH]c3nc2=O)cc1` [Compound 1262], the “E. coli ATCC25922 MIC” value is on record as “− (a “−” indicates that the compound has an MIC value greater than 16 micrograms/ml)”.

Consider `N=C(N)NCCCNCc1ccc(-n2cc3cc(-c4cccc(OCCCN)c4)[nH]c3nc2=O)cc1F` [Compound 1263], for which the MIC was under 16 µg/mL.

On to `N=C(N)NCCCNCc1ccc(-n2cc3cc([C@H]4C[C@@H](N)[C@@H](CO)O4)[nH]c3nc2=O)cc1` [Compound 1266], for which the MIC was under 16 µg/mL.

For the compound `N=C(N)NCCCNCc1ccc(-n2cc3cc([C@@H]4C[C@@H](N)[C@@H](CO)O4)[nH]c3nc2=O)cc1` [Compound 1267], the MIC is under 16 µg/mL.

As for `N=C(N)NCCCNC(=O)c1ccc(-n2cc3cc(-c4ccc(S(=O)(=O)NC5CNC5)cc4)[nH]c3nc2=O)cc1` [Compound 1268], the “E. coli ATCC25922 MIC” value was “+ (a “+” indicates that the compound has an MIC value of 16 micrograms/ml or less)”.

Consider `COc1cc(-n2cc3cc(-c4cccc(OCCCN)c4)[nH]c3nc2=O)ccc1CNCCCNC(=N)N` [Compound 1273], for which the “E. coli ATCC25922 MIC” value is on record as “+ (a “+” indicates that the compound has an MIC value of 16 micrograms/ml or less)”.

As to `CC(=O)NCCCS(=O)(=O)c1ccc(-c2cc3cn(-c4ccc(C(=O)NCCCNC(=N)N)cc4)c(=O)nc3[nH]2)cc1` [Compound 1274], the “E. coli ATCC25922 MIC” value is “− (a “−” indicates that the compound has an MIC value greater than 16 micrograms/ml)”.

What is called MIC is the least concentration at which growth counts as inhibited.
